Measured values reported in BindingDB's records for doi:10.1021/jm010244+ (Axys Pharmaceuticals, 2001).

Biological target: plasmin (Homo sapiens)
Experiment: The compound was tested for inhibition of human plasmin

Compound	Ki [nM]
N=C(N)c1ccc2[nH]c(-c3cccc(-c4ccccc4)c3O)cc2c1Cl [4-Chloro-2-(2-hydroxy-biphenyl-3-yl)-1H-indole-5-carboxamidine]	3000
Cc1cc2[nH]c(-c3cccc(-c4ccccc4)c3O)cc2cc1C(=N)N [2-(2-Hydroxy-biphenyl-3-yl)-6-methyl-1H-indole-5-carboxamidine]	210
